Measurements from US7795246B2, “Particle-forming compositions containing fused pyrrolocarbazoles” (Cephalon, Inc., priority 1998, dated 2010).
In brackets after ≈: the same amount, converted by molar mass. Like-named read-outs stand apart in the source and are kept apart here. Blank lines part the entries; values can stand above or below the compound they belong to.

What was measured:
[1] = Bioavailability in monkeys (plasma pharmacokinetics, HPLC); format: in vivo; conditions: cynomolgus monkey
Experimental: Pharmacokinetic parameters were measured following intravenous (i.v.) administration and oral (p.o.) administration. The test composition consisted of four male cynomolgus monkeys. The i.v. dose was administered as a bolus, at a dosage level of 3 mg/kg. The oral doses were administered as soft gelatin capsules, at a dosage level of 10 mg/kg (2 capsules/monkey/dose). The oral formulations were as described in Table 6, below.
Blood samples were collected at predetermined time points. […] Pharmacokinetic parameters were estimated by non-compartmental methods. In Table 7, Cmax is peak plasma concentration; Tmax is time to peak plasma concentration; Tt/2 is apparent elimination half-life; AUC is area under the curve; and F % is absolute bioavailability.

[2] = cited from earlier work
physchem = format: physicochemical
Text: Thus, dissolving the fused pyrrolocarbazole initially in this particular particle-forming composition achieves a better than 3.2-fold increase in fused pyrrolocarbazole concentration in the final solution. Because initial contact with an aqueous medium occurs in vitro or in vivo, the non-aqueous particle-forming compositions are useful for therapeutic administration of a fused pyrrolocarbazole to a mammal.

in vivo = conditions: beagle, dog, iv, 1 mg/kg
Experimental: An intravenous dose was included as the third formulation in the crossover design. […] The plasma concentrations, as determined by HPLC with fluorescence detection, were normalized to a 1 mg/kg dose. Pharmacokinetic parameters, including peak plasma concentration (Cmax), time to peak plasma concentration (Tmax), apparent elimination half life (t1/2), area under the curve (AUCoo) and the absolute bioavailability (F %) were determined.

[3] = tested on: rat tumor model of prostate cancer; assay: Rat tumor model of prostate cancer; format: in vivo

Tt/2 ([1]; i.v. bolus 3 mg/kg, PEG 1450:Pluronic F68:hydroxypropyl-β-cyclodextrin:water): 3.0 h
AUC(0-t) ([1]; male, plasma, iv, i.v. bolus 3 mg/kg, PEG 1450:Pluronic F68:hydroxypropyl-β-cyclodextrin:water, read-out: AUC0-4): 2500 ± 348 ng·h/mL
clearance ([1]; male, plasma, iv, i.v. dose 3 mg/kg): 18.3 mL/min/kg
Vd ([1]; male, plasma, iv, i.v. dose 3 mg/kg, read-out: mean volume of distribution): 4.9 ± 0.7 L/kg
SMILES: CCSCc1ccc2c(c1)c1c3c(c4c5cc(CSCC)ccc5n5c4c1n2C1CC(O)(C(=O)OC)C5(C)O1)CNC3=O (stereo not shown) [Compound IIa-51]

SMILES: C[C@]12O[C@H](C[C@]1(O)C(=O)O)n1c3ccccc3c3c4c(c5c6ccccc6n2c5c31)CNC4=O [Compound K-252b, K-252b]
solubility in water [2]: insoluble

SMILES: C[C@@H]1O[C@@H](n2c3ccccc3c3c4c(c5c6ccccc6[nH]c5c32)CNC4=O)[C@H](O)[C@H](O)[C@H]1O [Compound K-252d, K-252d]
solubility in water [2]: insoluble

SMILES: COC(=O)[C@@]1(O)C[C@H]2O[C@]1(C)n1c3ccccc3c3c4c(c5c6ccccc6n2c5c31)C(=O)NC4 [Compound K-252a, K-252a]
solubility in water [2]: insoluble

SMILES: CC12OC(CC1(O)CO)n1c3ccccc3c3c4c(c5c6ccccc6n2c5c31)CNC4=O (stereo not shown) [Compound IIa-12]
solubility in water (physchem): essentially no solubility
solubility (physchem; aqueous with cosolvent or surfactant or cyclodextrin, kinetic from dmso stock): 570 µg/mL (≈ 1300 µM)
solubility (physchem; aqueous with cosolvent or surfactant or cyclodextrin, thermodynamic from solid): 180 µg/mL (≈ 410 µM)
solubility (physchem; organic solvent or mixture): 28400 µg/mL (≈ 64700 µM)
clearance (in vivo): 13.2 mL/min/kg
half-life (in vivo): 69.6 min
Vd (in vivo; apparent volume of distribution Vc): 0.96 L/kg
Vd (in vivo; apparent volume of distribution Vβ): 1.35 L/kg
anticancer activity [3]: anticancer activity
